# In patent US11414436B2, “Non-coordinating anion type activators containing cation having large alkyl groups” (ExxonMobil Chemical Patents Inc., priority 2018, dated 2022):
# Several values for one entry are separate records, joined by “and”; a condition that tells them apart may be missing. Equal values may be shown once.
# Columns and labels:
# [1] = Propylene homopolymerization in parallel pressure reactor, MCN-1 with ammonium borate activators
# From the text: Polymerization in Parallel Pressure Reactor
# Solvents, polymerization-grade toluene, and isohexane were supplied by ExxonMobil Chemical Company and purified by passing through a series of columns: two 500 cc Oxyclear cylinders in series from Labclear (Oakland, Calif.), followed by two 500 cc columns in series packed with dried 3 Å mole sieves (8-12 mesh; Aldrich Chemical Company), and two 500 cc columns in series packed with dried 5 Å mole sieves (8-12 mesh; Aldrich Chemical Company). 1-octene (C8) and 1-hexene (C6) (98%, Aldrich Chemical Company) were dried by stirring over NaK overnight followed by filtration through basic alumina (Aldrich Chemical Company, Brockman Basic 1).
# (§1) Solutions of the metal complexes and activators were prepared in a drybox using toluene or methylcyclohexane. Concentrations were typically 0.2 mmol/L. Tri-n-octylaluminum (TNOAL, neat, AkzoNobel) was typically used as a scavenger. Concentration of the TNOAL solution in toluene ranged from 0.5 to 2.0 mmol/L.
# (§2) Polymerizations were carried out in a parallel pressure reactor, as generally described in U.S. Pat. Nos. 6,306,658; 6,455,316; 6,489,168; WO 00/09255; and Murphy, V. et al. (2003) “A Fully Integrated High-Throughput Screening Methodology for the Discovery of New Polyolefin Catalysts: Discovery of a New Class of High Temperature Single-Site Group (IV) Copolymerization Catalysts,” J. Am. Chem. Soc., v. 125, pp. 4306-4317, each of which is fully incorporated herein by reference. […] Although the specific quantities, temperatures, solvents, reactants, reactant ratios, pressures, and other variables are frequently changed from one polymerization run to the next, the following describes a typical polymerization performed in a parallel pressure reactor.
# Catalyst systems dissolved in solution were used in the polymerization examples below, unless specified otherwise.
# RUN A: Propylene Homopolymerization (PP).
# The reactor was prepared as described above and purged with propylene. For the examples in Table 2, the catalyst and activator solutions were prepared in toluene. […] Isohexane was then injected into each vessel at room temperature followed by a predetermined amount of propylene gas. The reactor was heated to the set temperature while stirring at 800 rpm, and the scavenger, activator and catalyst solutions were injected sequentially to each vessel. The polymerization was allowed to proceed as described previously.
# A series of propylene polymerizations were performed in parallel pressure reactors (PPRs) developed by Symyx Technologies, Inc. In these polymerizations, the metallocene rac-dimethylsilyl-bis(indenyl)hafnium dimethyl (MCN-1) was used along with several different ammonium borate activators. Polymerizations were performed at 85° C. and 100° C.
# Propylene homopolymerization (PP).
# A series of propylene polymerizations were performed in the parallel pressure reactor similar to the procedure described above. In these studies rac-dimethylsilyl-bis(indenyl)hafnium dimethyl (MCN-1) was used along with ammonium borate activators.
# [2] = Ethylene homopolymerization (PE) in parallel pressure reactor, MCN-1; conditions: MCN-1 = 20 nmol, activator = 22 nmol, 80° C., 75 PSI
# Experimental: Ethylene homopolymerization (PE).
# A series of ethylene polymerizations were performed in the parallel pressure reactor sinilar to the procedure described above. In these studies rac-dimethylsilyl- bis(indenyl)hafnium dimethyl (MCN-1) was used along with ammonium borate activators .
# [3] = Ethylene-octene copolymerization (EO) in parallel pressure reactor, MCN-1 (Table 6); conditions: MCN-1 = 20 nmol, activator = 22 nmol, 1-octene 100 μL, 80° C., 75 PSI
# Experimental: (§3) Ethylene-Octene Copolymerization (EO).
# (§4) A pre-weighed glass vial insert and disposable stirring paddle were fitted to each reaction vessel of the reactor, which contains 48 individual reaction vessels. The reactor was then closed and purged with ethylene. Each vessel was charged with enough solvent (typically isohexane) to bring the total reaction volume, including the subsequent additions, to the desired volume, typically 5 mL. 1-octene, if required, was injected into the reaction vessel and the reactor was heated to the set temperature and pressurized to the predetermined pressure of ethylene, while stirring at 800 rpm. The aluminum compound (such as tri-n-octylaluminum) in toluene was then injected as scavenger followed by addition of the activator solution (typically 1.0-1.2 molar equivalents).
# (§5) The catalyst (and activator solutions for Run A) were all prepared in toluene. The catalyst solution (typically 0.020-0.080 μmol of metal complex) was injected into the reaction vessel and the polymerization was allowed to proceed until a pre-determined amount of ethylene (quench value typically 20 psi) had been used up by the reaction. Alternatively, the reaction may be allowed to proceed for a set amount of time (maximum reaction time typically 30 minutes). Ethylene was added continuously (through the use of computer controlled solenoid valves) to the autoclaves during polymerization to maintain reactor gauge pressure (P setpt, +/−2 psig) and the reactor temperature (T) was monitored and typically maintained within +/−1° C. The reaction was quenched by pressurizing the vessel with compressed air. After the reactor was vented and cooled, the glass vial insert containing the polymer product and solvent was removed from the pressure cell and the inert atmosphere glove box, and the volatile components were removed using a Genevac HT-12 centrifuge and Genevac VC3000D vacuum evaporator operating at elevated temperature and reduced pressure. The vial was then weighed to determine the yield of the polymer product. The resultant polymer was analyzed by Rapid GPC (see below) to determine the molecular weight, by FT-IR (see below) to determine percent octene incorporation, and by DSC (see below) to determine melting point (Tm).
# A series of ethylene-octene polymerizations were performed in the parallel pressure reactor according to a similar procedure as described above. In these studies rac-dimethylsilyl-bis(indenyl)hafnium dimethyl (MCN-1) was used along with ammonium borate activators.
# [4] = Ethylene-octene copolymerization in parallel pressure reactor, non-metallocene catalyst CAT-1; conditions: catalyst CAT-1 20 nmol; activator 1.1 equiv; 100° C.; 135 psi; 1-octene 100 uL; TNOAL 0.5 umol
# Experimental: as §1, §2, §3, §4, §5
# (§6) Equivalence is determined based on the mole equivalents relative to the moles of the transition metal in the catalyst complex.
# (§7) Activators of the present disclosure can also be used for activating non-metallocene catalysts for polymerization of olefins. Table 4 illustrates copolymerization of ethylene and octene using activators of the present disclosure and non-metallocene catalysts (CAT-1, CAT-2, CAT-3, and CAT-4).
# [5] = Ethylene-octene copolymerization in parallel pressure reactor, non-metallocene catalyst CAT-4; conditions: catalyst CAT-4 20 nmol; activator 1.1 equiv; 100° C.; 135 psi; 1-octene 100 uL; TNOAL 0.5 umol
# Experimental: as §1, §2, §3, §4, §5, §6, §7
# [6] = Ethylene-octene copolymerization in parallel pressure reactor, non-metallocene catalyst CAT-3; conditions: catalyst CAT-3 20 nmol; activator 1.1 equiv; 100° C.; 135 psi; 1-octene 100 uL; TNOAL 0.5 umol
# Experimental: as §1, §2, §3, §4, §5, §6, §7
# [7] = RUN B: ethylene-octene polymerization in parallel pressure reactor, activator diluent toluene or methylcyclohexane; conditions: ethylene-octene copolymerization
# Experimental: RUN B: Polymerization in Parallel Pressure Reactor.
# A series of ethylene-octene polymerizations were performed in the parallel pressure reactor according to the procedure described above. […] In a typical experiment an automated syringe was used to introduce into the reactor the following reagents, if utilized, in the following order: isohexane (0.35 mL), an isohexane solution of TNOAL scavenger (0.005 M, 60 μL), additional isohexane (0.35 mL), a toluene solution of the respective polymerization catalyst (150 μL, 0.4 mM, 20 nm [cat]/100 μL [toluene]), additional isohexane (0.35 mL), a toluene or methylcyclohexane solution of the respective activator (150 μL, 0.4 mM, (20 nm [act]/100 μL[ diluent])), then additional isohexane so that the total solvent volume for each run was 5 mL. Catalyst and activator were used in a 1:1 ratio. Each reaction was performed at a specified temperature range between 50 and 120° C., typically 95° C., while applying about 100 psig of ethylene (monomer) gas. Each reaction was allowed to run for about 1 hour (˜3600 seconds) or until approximately 20 psig of ethylene gas uptake was observed, at which point the reactions were quenched with air (˜300 psig). When sufficient polymer yield was attained (e.g., at least ˜10 mg), the polyethylene product was analyzed by Rapid GPC, described below.
# In a typical experiment, the anilinium borate activators were combined with toluene or methylcyclohexane as diluent and introduced to the parallel, pressure reactor via syringe. By this mechanism of activator introduction, only well dissolved activators could be delivered to the reactor providing a means to discriminate between the polymerization performance of long chain soluble anilinium borates vs. conventional anilinium borates. Following addition of activator, the catalyst Cat 1 was introduced, via syringe as well-dissolved toluene solution and the polymerization was conducted per the methodology described above.
# [8] = Ethylene-octene copolymerization in parallel pressure reactor, non-metallocene catalyst CAT-2; conditions: catalyst CAT-2 20 nmol; activator 1.1 equiv; 100° C.; 135 psi; 1-octene 100 uL; TNOAL 0.5 umol
# Experimental: as §1, §2, §3, §4, §5, §6, §7
Substance,"average catalyst activity, comparison of the four activators (FIG. 6) ([1]; MCN-1, polypropylene at 100° C., Table 7 runs)","activity ([1]; propylene 150 psi, 100° C., MCN-1 = 30 nmol, activator = 33 nmol, isohexane, TNOAL 500 nmol)",activity [2],activity [3],activity [4],activity [5],activity [6],"quantity of polymer obtained with methylcyclohexane as diluent ([7]; Cat 1, activator in methylcyclohexane)","activity ([7]; Cat 1 (MCN-1), activator diluent Toluene, listed as C1)",activity [8]
N-methyl-4-nonadecyl-N-octadecylanilinium tetrakis(perfluoronaphthalen-2-yl)borate [NOMAH-BF28],highest average activities,141 kg/mmol/h and 208 kg/mmol/h and 193 kg/mmol/h and 210 kg/mmol/h and 181 kg/mmol/h and 178 kg/mmol/h and 223 kg/mmol/h and 207 kg/mmol/h,213.1 kg/mmol/h and 202.3 kg/mmol/h and 173.6 kg/mmol/h and 272.1 kg/mmol/h,302.1 kg/mmol/h and 321.1 kg/mmol/h and 300.0 kg/mmol/h and 345.5 kg/mmol/h,,,,,,
"N,N-Dimethylanilinium tetrakis(pentafluorophenyl)borate [DMAH-BF20, reference compound]",,,288.7 kg/mmol/h and 407.1 kg/mmol/h,644.4 kg/mmol/h and 509.4 kg/mmol/h,2977 kg/mmol/h and 2469 kg/mmol/h,76 kg/mmol/h and 45 kg/mmol/h,819 kg/mmol/h and 698 kg/mmol/h,insufficient for analysis,764.2 kg/mmol/h and 675.0 kg/mmol/h and 659.1 kg/mmol/h and 680.5 kg/mmol/h,1140 kg/mmol/h and 916 kg/mmol/h
